Source: patent US9187467B2, “2-phenyl benzothiazole linked imidazole compounds as potential anticancer agents and process for the preparation thereof” (Council of Scientific and Industrial Research, priority 2012, dated 2015)

How the values were obtained:
SK-MEL-2 = assay: SRB anticancer assay, melanoma; assay type: cell-based, human
OVCAR-4 = assay: SRB anticancer assay, ovarian; assay type: cell-based, human; conditions: Homo sapiens, OVCAR-4, 48 h
MCF7 = assay: SRB anticancer assay, breast; assay type: cell-based, human; conditions: Homo sapiens, MCF7, 48 h
OVCAR-8 = assay: SRB anticancer assay, ovarian; assay type: cell-based, human; set-up: Log10GI50: unit not given here
RXF 393 = assay: SRB anticancer assay, renal; assay type: cell-based, human; set-up: Log10GI50: unit not given here
SNB-19 = assay: SRB anticancer assay, CNS; assay type: cell-based, human; set-up: Log10GI50: unit not given here
K562 (Leukemia) cells = assay: Cell cycle distribution by flow cytometry; assay type: cell-based
Experimental: (§1) In order to investigate the mechanism underlying the anti-proliferative effect of the compounds the cell cycle distribution was analyzed in K562 (Leukemia) and MCF-7 (Breast carcinoma) cell lines by flow cytometry. Compounds CA-4, 21a, 21d, 4c, 6d, 6e, 6f, 7d, 7h and 7j have shown 1.72%, 14%, 12%, 14%, 12%, 14%, 14%, 16%, 16% &12% in K562 cells and 49.63%, 21%, 20%, 18%, 21%, 21%, 21%, 24%, 23% and 23% in MCF-7 cell line respectively. […] Thus compound 7d was considered for further studies (FIG. 1).

HCT-116 = assay: SRB anticancer assay, colon; assay type: cell-based, human; conditions: Homo sapiens, HCT-116, 48 h
SN12C = assay: SRB anticancer assay, renal; assay type: cell-based, human; set-up: Log10GI50: unit not given here
SNB-75 = assay: SRB anticancer assay, CNS; assay type: cell-based, human; set-up: Log10GI50: unit not given here
NCI/ADR-RES = assay: SRB anticancer assay, ovarian; assay type: cell-based, human; set-up: Log10GI50: unit not given here; conditions: for Log10GI50: present compounds
Breast cancer cell lines = assay: SRB anticancer assay, panel result; assay type: cell-based, human
Experimental: (§2) The compounds were evaluated for anticancer activity against sixty human cancer cells derived from nine cancer types (leukemia cell line, non-small-cell lung cell line, colon cell line, CNS cell line, melanoma cell line, ovarian cell line, prostate cell line, renal cancer cell line and breast cancer cell line) as shown in Table 1. For each compound, dose response curves for each cell line were measured at a minimum of five concentrations at 10 fold dilutions. A protocol of 48 h continuous drug exposure was used and a sulforhodamine B (SRB) protein assay was used to estimate cell viability or growth.

[1] = tested on: Melanoma cancer cell lines; assay: SRB anticancer assay, panel result; assay type: cell-based, human
Experimental: as §2

Renal cancer cell lines = assay: SRB anticancer assay, panel result; assay type: cell-based, human
Experimental: as §2

Colon cancer cell lines = assay: SRB anticancer assay, panel result; assay type: cell-based, human
Experimental: as §2

[2] = tested on: Non-small cell lung cancer cell lines; assay: SRB anticancer assay, panel result; assay type: cell-based, human
Experimental: as §2

[3] = tested on: Ovarian cancer cell lines; assay: SRB anticancer assay, panel result; assay type: cell-based, human
Experimental: as §2

CNS cancer cell lines = assay: SRB anticancer assay, panel result; assay type: cell-based, human
Experimental: as §2

[4] = tested on: Leukemia cancer cell lines; assay: SRB anticancer assay, panel result; assay type: cell-based, human
Experimental: as §2

[5] = tested on: Prostate cancer cell lines; assay: SRB anticancer assay, panel result; assay type: cell-based, human
Experimental: as §2

M14 = assay: SRB anticancer assay, melanoma; assay type: cell-based, human; set-up: Log10GI50: unit not given here
[6] = tested on: MCF-7 (Breast carcinoma) cells; assay: Cell cycle distribution by flow cytometry (FACS); assay type: cell-based; conditions: MCF-7 cells, 2 μM, 24h
Experimental: FIG. 1 represents FACS analysis of cell cycle distribution of MCF-7 cells after treatment with compounds CA-4, 21a, 21d, 4c, 6d, 6e, 6f, 7d, 7h and 7j at 2 μM concentration for 24h and control cells are the cells treated with DMSO (0.25%).
as §1

`COc1ccc(-c2cncn2-c2ccc(-c3nc4cc(OC)c(OC)c(OC)c4s3)cc2)cc1N` [Compound 7j, 2-Methoxy-5-(1-(4-(5,6,7-trimethoxybenzo[d]thiazol-2-yl)phenyl)-1H-imidazol-5-yl)benzeneamine] showed a GI50 (SK-MEL-2; Homo sapiens, SK-MEL-2, 48 h) of 6.04 µM, a Log10GI50 (SK-MEL-2; SK-MEL-2, present compounds) of −5.22 M and a GI50 (OVCAR-4) of 6.29 µM. For the same molecule, the GI50 (MCF7) was 4.07 µM, the GI50 (OVCAR-8; Homo sapiens, OVCAR-8, 48 h) was 6.19 µM and the Log10GI50 (OVCAR-8; OVCAR-8, present compounds) was −5.21. For the same molecule, the GI50 (RXF 393; Homo sapiens, RXF 393, 48 h) was 5.98 µM, the Log10GI50 (RXF 393; RXF 393, present compounds) was −5.22 and the GI50 (SNB-19; Homo sapiens, SNB-19, 48 h) was greater than 100 µM. The Log10GI50 (SNB-19; SNB-19, present compounds) was greater than −4.0, the “cells in G2/M phase” value (K562 (Leukemia) cells) was 12% and the GI50 (HCT-116) was 3.78 µM. The GI50 (SN12C; Homo sapiens, 48 h) was 9.44 µM, the Log10GI50 (SN12C; present compounds) was −5.03 and the GI50 (SNB-75; Homo sapiens, SNB-75, 48 h) was 52.3 µM. The Log10GI50 (SNB-75; SNB-75, present compounds) was −4.28, the GI50 (NCI/ADR-RES; Homo sapiens, NCI/ADR-RES, 48 h) was 3.12 µM and the Log10GI50 (NCI/ADR-RES; NCI/ADR-RES (row head NCI/ADR-)) was −5.51. The Log10GI50 (NCI/ADR-RES; listed as head printed RES (second line of NCI/ADR-RES)) was greater than −4.0, the “mean graph midpoint value (MG_MID) of Log10 GI50” value (Breast cancer cell lines; Breast panel) was −4.96 mol/L and the “mean graph midpoint value (MG_MID) of log10 TGI” value (Breast cancer cell lines; Breast panel, total inhibition of net cell growth) was greater than −4.0. The CC50 (Breast cancer cell lines; Homo sapiens, Breast panel, 50% net cell death, read-out: mean graph midpoint value (MG_MID) of Log10 LC50 (converted)) was greater than 100 µM, the GI50 (Breast cancer cell lines; Homo sapiens, six breast cancer cell lines, exposure at least 48 h, read-out: GI50, range over the panel) was 3.02 to 28.3 µM and the LC50 ([1]; Homo sapiens, Melanoma panel, 50% net cell death, read-out: mean graph midpoint value (MG_MID) of Log10 LC50 (converted)) was 81.3 µM. For the same molecule, the GI50 ([1]; Homo sapiens, nine melanoma cancer cell lines, exposure at least 48 h, read-out: GI50, range over the panel) was 1.73 to 13.7 µM, the “mean graph midpoint value (MG_MID) of Log10 GI50” value ([1]; Melanoma panel) was −5.17 log10(mol/L) and the “mean graph midpoint value (MG_MID) of log10 TGI” value ([1]; Melanoma panel, total inhibition of net cell growth) was −4.26. For the same molecule, the CC50 (Renal cancer cell lines; Homo sapiens, Renal panel, 50% net cell death, read-out: mean graph midpoint value (MG_MID) of Log10 LC50 (converted)) was greater than 100 µM, the GI50 (Renal cancer cell lines; Homo sapiens, eight renal cancer cell lines, exposure at least 48 h, read-out: GI50, range over the panel) was 1.99 to 9.44 µM and the “mean graph midpoint value (MG_MID) of Log10 GI50” value (Renal cancer cell lines; Renal panel) was −5.31 log10(mol/L). The “mean graph midpoint value (MG_MID) of log10 TGI” value (Renal cancer cell lines; Renal panel, total inhibition of net cell growth) was −4.14, the “mean graph midpoint value (MG_MID) of Log10 GI50” value (Colon cancer cell lines; Colon panel) was −5.40 log10(mol/L) and the “mean graph midpoint value (MG_MID) of log10 TGI” value (Colon cancer cell lines; Colon panel, total inhibition of net cell growth) was −4.11. For the same molecule, the LC50 (Colon cancer cell lines; Homo sapiens, Colon panel, 50% net cell death, read-out: mean graph midpoint value (MG_MID) of Log10 LC50 (converted)) was greater than 100 µM, the GI50 (Colon cancer cell lines; Homo sapiens, seven colon cancer cell lines, exposure at least 48 h, read-out: GI50, range over the panel) was 2.94 to 6.21 µM and the LC50 ([2]; Homo sapiens, Non-small cell lung panel, 50% net cell death, read-out: mean graph midpoint value (MG_MID) of Log10 LC50 (converted)) was greater than 100 µM. For the same molecule, the GI50 ([2]; Homo sapiens, nine Non-small cell lung cancer cell lines, exposure at least 48 h, read-out: GI50, range over the panel) was 3.37 to 25.7 µM, the “mean graph midpoint value (MG_MID) of Log10 GI50” value ([2]; Non-small cell lung panel) was −5.18 log10(M) and the “mean graph midpoint value (MG_MID) of log10 TGI” value ([2]; Non-small cell lung panel, total inhibition of net cell growth) was −4.11. The LC50 ([3]; Homo sapiens, Ovarian panel, 50% net cell death, read-out: mean graph midpoint value (MG_MID) of Log10 LC50 (converted)) was greater than 100 µM, the GI50 ([3]; Homo sapiens, seven ovarian cancer cell lines, exposure at least 48 h, read-out: GI50, range over the panel) was 3.12 to 6.29 µM and the “mean graph midpoint value (MG_MID) of Log10 GI50” value ([3]; Ovarian panel) was −4.93 mol/L. For the same molecule, the “mean graph midpoint value (MG_MID) of log10 TGI” value ([3]; Ovarian panel, total inhibition of net cell growth) was greater than −4.0, the “mean graph midpoint value (MG_MID) of Log10 GI50” value (CNS cancer cell lines; CNS panel) was −4.53 mol/L and the “mean graph midpoint value (MG_MID) of log10 TGI” value (CNS cancer cell lines; CNS panel, total inhibition of net cell growth) was greater than −4.0. It also gave a CC50 (CNS cancer cell lines; Homo sapiens, CNS panel, 50% net cell death, read-out: mean graph midpoint value (MG_MID) of Log10 LC50 (converted)) greater than 100 µM, a GI50 (CNS cancer cell lines; Homo sapiens, six CNS cancer cell lines, exposure at least 48 h, read-out: GI50, range over the panel) of 4.44 to 52.3 µM and an LC50 ([4]; Homo sapiens, Leukemia panel, 50% net cell death, read-out: mean graph midpoint value (MG_MID) of Log10 LC50 (converted)) greater than 100 µM. The GI50 ([4]; Homo sapiens, six leukemia cancer cell lines, exposure at least 48 h, read-out: GI50, range over the panel) was 2.2 to 4 µM, the “mean graph midpoint value (MG_MID) of Log10 GI50” value ([4]; Leukemia panel) was −5.49 log10(mol/L) and the “mean graph midpoint value (MG_MID) of log10 TGI” value ([4]; Leukemia panel, total inhibition of net cell growth) was −4.20. For the same molecule, the LC50 ([5]; Homo sapiens, Prostate panel, 50% net cell death, read-out: mean graph midpoint value (MG_MID) of Log10 LC50 (converted)) was greater than 100 µM, the GI50 ([5]; Homo sapiens, two prostate cancer cell lines (PC-3, DU-145), exposure at least 48 h, read-out: GI50, range over the panel) was 2.59 to 6.38 µM and the “mean graph midpoint value (MG_MID) of Log10 GI50” value ([5]; Prostate panel) was −5.39 mol/L. For the same molecule, the “mean graph midpoint value (MG_MID) of log10 TGI” value ([5]; Prostate panel, total inhibition of net cell growth) was greater than −4.0, the GI50 (M14; Homo sapiens, M14, 48 h) was 5.91 µM and the Log10GI50 (M14; M14, present compounds) was −5.23. The “cells in G2/M phase” value [6] was 23%.
